The values that follow come from patent US20240382483A1, “HETEROCYCLIC EGFR INHIBITORS FOR USE IN THE TREATMENT OF CANCER” (Blueprint Medicines Corporation, priority 2021, published 2024).

The target in one test is T1, EGFR (L858R T790M C797S) (Homo sapiens, UniProt P00533, C797S/L858R/T790M).
T1 construct: purchased SignalChem E10-122VG
The experiment in a line: Biochemical EGFR inhibition assay (Caliper mobility shift), EGFR LRTMCS. Conditions: LRTMCS (PH) IC50 (nM) @ 1 mM ATP (Num), EGFR LRTMCS mutant. In short, it runs like this:
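Each enzyme was allowed to phosphorylate 10–20% of its peptide at 25° C. before EDTA (35 mM) quench. Separated substrate and product peaks were measured by mobility shift, giving apparent IC50 values.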

Test [1] addresses T2, intracellular phosphorylation of EGFR in NCI-H1975 cell line that harbors the EGFR L858R T790M mutations (Homo sapiens, UniProt P00533, L858R/T790M).
T2 construct: NCI-H1975 cell line that harbors the EGFR L858R T790M mutations (ATCC, CRL-5908); host or cells: NCI-H1975
The experiment in a line: NCI-H1975 pEGFR AlphaLISA assay. The note with it: NCI-H1975 cells (EGFR L858R T790M), p-EGFR (Tyr1068), 4-5 hours incubation; read-out: Ext pEGFR H1975 GMean IC50 (nM) Protocol: @Pharmaron AlphaLISA (Num). The format is cell-based. The method, then: On the next day, the test compounds and DMSO control were added into H1975 cell plate followed by incubation at 37C/5% CO2 for 4-5 hours. […] Then 5 μL of a donor bead mix was added to each well followed by overnight incubation at room temperature in dark. On the next day, the plate was read at a compatible plate reader to obtain pEGFR signal. Percent of pEGFR inhibition was plotted against log concentration of compounds to generate IC50 values.
Background: Alpha assays give light when donor and acceptor beads are brought close together.

SMILES strings stand for the structures.

T1 sequence (P00533 25-1210 T790M/C797S/L858R): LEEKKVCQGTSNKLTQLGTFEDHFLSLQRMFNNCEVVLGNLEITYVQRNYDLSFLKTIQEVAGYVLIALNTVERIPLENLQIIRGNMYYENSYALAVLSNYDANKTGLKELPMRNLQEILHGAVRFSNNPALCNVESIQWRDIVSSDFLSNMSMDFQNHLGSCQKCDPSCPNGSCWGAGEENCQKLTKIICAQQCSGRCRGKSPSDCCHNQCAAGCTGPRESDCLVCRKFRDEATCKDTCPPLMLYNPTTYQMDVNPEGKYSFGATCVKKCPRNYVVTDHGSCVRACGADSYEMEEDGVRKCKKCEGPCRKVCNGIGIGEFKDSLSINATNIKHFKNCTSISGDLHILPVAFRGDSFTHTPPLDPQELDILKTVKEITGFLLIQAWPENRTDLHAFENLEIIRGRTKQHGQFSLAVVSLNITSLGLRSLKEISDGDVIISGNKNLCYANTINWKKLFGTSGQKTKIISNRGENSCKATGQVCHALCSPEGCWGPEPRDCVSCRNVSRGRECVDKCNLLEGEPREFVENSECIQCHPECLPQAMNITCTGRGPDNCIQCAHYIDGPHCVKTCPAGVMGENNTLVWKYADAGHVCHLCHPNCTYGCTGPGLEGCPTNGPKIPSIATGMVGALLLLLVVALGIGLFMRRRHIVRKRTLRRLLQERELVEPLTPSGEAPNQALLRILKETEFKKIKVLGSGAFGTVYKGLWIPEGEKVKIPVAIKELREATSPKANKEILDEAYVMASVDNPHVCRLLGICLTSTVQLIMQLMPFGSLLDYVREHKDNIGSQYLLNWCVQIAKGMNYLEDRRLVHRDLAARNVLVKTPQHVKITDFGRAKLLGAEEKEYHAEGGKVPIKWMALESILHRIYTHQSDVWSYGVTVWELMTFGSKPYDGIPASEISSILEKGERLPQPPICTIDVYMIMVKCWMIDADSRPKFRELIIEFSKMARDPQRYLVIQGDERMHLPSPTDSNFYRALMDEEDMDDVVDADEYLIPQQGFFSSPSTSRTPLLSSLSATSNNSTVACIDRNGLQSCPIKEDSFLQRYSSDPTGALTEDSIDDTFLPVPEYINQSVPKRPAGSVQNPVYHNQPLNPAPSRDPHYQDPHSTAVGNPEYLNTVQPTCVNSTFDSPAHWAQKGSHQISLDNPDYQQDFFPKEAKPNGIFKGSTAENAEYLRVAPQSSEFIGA
T2 sequence (P00533 25-1210 T790M/L858R): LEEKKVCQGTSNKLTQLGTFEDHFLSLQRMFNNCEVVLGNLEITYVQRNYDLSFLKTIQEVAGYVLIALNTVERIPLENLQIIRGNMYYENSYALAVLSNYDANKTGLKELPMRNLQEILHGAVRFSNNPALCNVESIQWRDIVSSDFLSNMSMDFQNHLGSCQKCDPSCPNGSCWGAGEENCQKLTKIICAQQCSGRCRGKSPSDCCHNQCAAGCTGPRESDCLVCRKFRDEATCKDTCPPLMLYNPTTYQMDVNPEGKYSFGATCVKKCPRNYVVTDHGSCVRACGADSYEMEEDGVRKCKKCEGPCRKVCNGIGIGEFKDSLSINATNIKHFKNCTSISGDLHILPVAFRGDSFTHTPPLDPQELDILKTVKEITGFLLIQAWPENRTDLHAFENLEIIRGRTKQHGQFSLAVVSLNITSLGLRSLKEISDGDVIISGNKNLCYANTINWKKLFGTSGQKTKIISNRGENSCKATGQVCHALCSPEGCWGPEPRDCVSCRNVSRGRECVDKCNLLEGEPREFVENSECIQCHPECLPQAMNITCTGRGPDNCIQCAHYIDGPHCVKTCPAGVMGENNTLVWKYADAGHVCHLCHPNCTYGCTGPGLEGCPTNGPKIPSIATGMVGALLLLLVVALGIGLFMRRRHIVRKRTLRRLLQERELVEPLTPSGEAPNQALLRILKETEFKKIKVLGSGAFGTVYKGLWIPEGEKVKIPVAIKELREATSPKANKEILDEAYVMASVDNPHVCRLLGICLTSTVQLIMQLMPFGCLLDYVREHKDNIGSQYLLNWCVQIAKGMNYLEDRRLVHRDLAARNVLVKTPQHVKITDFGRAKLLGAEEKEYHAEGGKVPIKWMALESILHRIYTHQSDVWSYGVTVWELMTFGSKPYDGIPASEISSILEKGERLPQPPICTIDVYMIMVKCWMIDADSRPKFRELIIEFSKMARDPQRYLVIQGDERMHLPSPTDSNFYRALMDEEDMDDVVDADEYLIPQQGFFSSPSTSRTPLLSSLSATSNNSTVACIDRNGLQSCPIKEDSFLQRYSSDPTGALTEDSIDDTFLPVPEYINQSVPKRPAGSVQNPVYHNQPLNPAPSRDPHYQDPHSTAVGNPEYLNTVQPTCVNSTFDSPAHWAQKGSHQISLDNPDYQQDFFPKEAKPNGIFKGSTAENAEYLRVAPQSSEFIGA

Regarding `CC(C)c1cnc(N2CC[C@H](S(C)(=O)=O)C2)c2cnc(Nc3ccnc(N4CC[C@@H](O)[C@@](C)(F)C4)n3)cc12` [Example 75, (3S,4R)-3-fluoro-1-(4-((5-isopropyl-8-((S)-3-(methylsulfonyl)pyrrolidin-1-yl)-2,7-naphthyridin-3-yl)amino)pyrimidin-2-yl)-3-methylpiperidin-4-ol], the concentration for half-maximal inhibition (IC50) at EGFR (L858R T790M C797S) lay in the range of 15 to 20 nM; in test [1], 10 to 20 nM.
Take `CC(C)c1cnc(N2CC[C@H]2CF)c2cnc(Nc3ccnc(N4CC[C@@H](O)[C@@](C)(F)C4)n3)cc12` [Example 76, (3S,4R)-3-fluoro-1-(4-((8-((S)-2-(fluoromethyl)azetidin-1-yl)-5-isopropyl-2,7-naphthyridin-3-yl)amino)pyrimidin-2-yl)-3-methylpiperidin-4-ol]: the IC50 on EGFR (L858R T790M C797S) was below 15 nM; in test [1], 10 to 20 nM.
On the same counts, the results for `CC(C)c1cnc(N2CC(CCO)C2)c2cnc(Nc3ccnc(N4CC[C@@H](O)[C@@](C)(F)C4)n3)cc12` [Example 77, (3S,4R)-3-fluoro-1-(4-((8-(3-(2-hydroxyethyl)azetidin-1-yl)-5-isopropyl-2,7-naphthyridin-3-yl)amino)pyrimidin-2-yl)-3-methylpiperidin-4-ol] are 15 to 20 nM and 20 to 30 nM.
On the same counts, the results for `CC(C)c1cnc(N2C[C@](C)(O)[C@H]2C)c2cnc(Nc3ccnc(N4CC[C@@H](O)[C@@](C)(F)C4)n3)cc12` [Example 78, (3S,4R)-3-fluoro-1-(4-((8-((2R,3S)-3-hydroxy-2,3-dimethylazetidin-1-yl)-5-isopropyl-2,7-naphthyridin-3-yl)amino)pyrimidin-2-yl)-3-methylpiperidin-4-ol] are 15 to 20 nM and 20 to 30 nM.
On the same counts, the results for `CC(C)c1cnc(N2CC(CP(C)(C)=O)C2)c2cnc(Nc3ccnc(N4CC[C@@H](O)[C@@](C)(F)C4)n3)cc12` [Example 79, ((1-(6-((2-((3S,4R)-3-fluoro-4-hydroxy-3-methylpiperidin-1-yl)pyrimidin-4-yl)amino)-4-isopropyl-2,7-naphthyridin-1-yl)azetidin-3-yl)methyl)dimethylphosphine oxide] are 30 to 100 nM and above 50 nM.
As to `CNC(=O)C1CN(c2ncc(C(C)C)c3cc(Nc4ccnc(N5CC[C@@H](O)[C@@](C)(F)C5)n4)ncc23)C1` [Example 80, 1-(6-((2-((3S,4R)-3-fluoro-4-hydroxy-3-methylpiperidin-1-yl)pyrimidin-4-yl)amino)-4-isopropyl-2,7-naphthyridin-1-yl)-N-methylazetidine-3-carboxamide], the IC50 on EGFR (L858R T790M C797S) was below 15 nM; in test [1], 30 to 50 nM.
Turning to `CC(C)c1cnc(N2CC[C@H](O)[C@H]2C)c2cnc(Nc3ccnc(N4CC[C@@H](O)[C@@](C)(F)C4)n3)cc12` [Example 81, (3S,4R)-3-fluoro-1-(4-((8-((2R,3S)-3-hydroxy-2-methylpyrrolidin-1-yl)-5-isopropyl-2,7-naphthyridin-3-yl)amino)pyrimidin-2-yl)-3-methylpiperidin-4-ol], the IC50 was 15 to 20 nM on EGFR (L858R T790M C797S) and above 50 nM in test [1].
For the compound `COC(=O)N1CC2(CCN2c2ncc(C(C)C)c3cc(Nc4ccnc(N5CC[C@@H](O)[C@@](C)(F)C5)n4)ncc23)C1` [Example 82, methyl 1-(6-((2-((3S,4R)-3-fluoro-4-hydroxy-3-methylpiperidin-1-yl)pyrimidin-4-yl)amino)-4-isopropyl-2,7-naphthyridin-1-yl)-1,6-diazaspiro[3.3]heptane-6-carboxylate], the figures for the IC50 (at EGFR (L858R T790M C797S); in test [1]) were 15 to 20 nM and 30 to 50 nM, respectively.
`CC(C)c1cnc(N2CC(CNS(C)(=O)=O)C2)c2cnc(Nc3ccnc(N4CC[C@@H](O)[C@@](C)(F)C4)n3)cc12` [Example 83, N-((1-(6-((2-((3S,4R)-3-fluoro-4-hydroxy-3-methylpiperidin-1-yl)pyrimidin-4-yl)amino)-4-isopropyl-2,7-naphthyridin-1-yl)azetidin-3-yl)methyl)methanesulfonamide]: the figures for the half-maximal inhibitory concentration (IC50) (on EGFR (L858R T790M C797S); in test [1]) were below 15 nM and 20 to 30 nM, respectively.
On the same counts, the results for `COC(=O)NCC1CN(c2ncc(C(C)C)c3cc(Nc4ccnc(N5CC[C@@H](O)[C@@](C)(F)C5)n4)ncc23)C1` [Example 84, methyl ((1-(6-((2-((3S,4R)-3-fluoro-4-hydroxy-3-methylpiperidin-1-yl)pyrimidin-4-yl)amino)-4-isopropyl-2,7-naphthyridin-1-yl)azetidin-3-yl)methyl)carbamate] are below 15 nM and 20 to 30 nM.
For `CNC(=O)C1(F)CN(c2ncc(C(C)C)c3cc(Nc4ccnc(N5CC[C@@H](O)[C@@](C)(F)C5)n4)ncc23)C1` [Example 85, 3-fluoro-1-(6-((2-((3S,4R)-3-fluoro-4-hydroxy-3-methylpiperidin-1-yl)pyrimidin-4-yl)amino)-4-isopropyl-2,7-naphthyridin-1-yl)-N-methylazetidine-3-carboxamide], the IC50 was in the range of 20 to 30 nM on EGFR (L858R T790M C797S) and 30 to 50 nM in test [1].
On the same counts, the results for `CC(C)c1cnc(N2CC(CC(=O)N(C)C)C2)c2cnc(Nc3ccnc(N4CC[C@@H](O)[C@@](C)(F)C4)n3)cc12` [Example 86, 2-(1-(6-((2-((3S,4R)-3-fluoro-4-hydroxy-3-methylpiperidin-1-yl)pyrimidin-4-yl)amino)-4-isopropyl-2,7-naphthyridin-1-yl)azetidin-3-yl)-N,N-dimethylacetamide] are 20 to 30 nM and 30 to 50 nM.
For the compound `CNC(=O)CC1CN(c2ncc(C(C)C)c3cc(Nc4ccnc(N5CC[C@@H](O)[C@@](C)(F)C5)n4)ncc23)C1` [Example 87, 2-(1-(6-((2-((3S,4R)-3-fluoro-4-hydroxy-3-methylpiperidin-1-yl)pyrimidin-4-yl)amino)-4-isopropyl-2,7-naphthyridin-1-yl)azetidin-3-yl)-N-methylacetamide], the 50% inhibitory concentration (IC50) on EGFR (L858R T790M C797S) is below 15 nM; in test [1], 20 to 30 nM.
On the same counts, the results for `CC(C)c1cnc(N2CC(n3cncn3)C2)c2cnc(Nc3ccnc(N4CC[C@@H](O)[C@@](C)(F)C4)n3)cc12` [Example 88, (3S,4R)-1-(4-((8-(3-(1H-1,2,4-triazol-1-yl)azetidin-1-yl)-5-isopropyl-2,7-naphthyridin-3-yl)amino)pyrimidin-2-yl)-3-fluoro-3-methylpiperidin-4-ol] are below 15 nM and 30 to 50 nM.
On to `CC(C)c1cnc(N2CC(n3ccnn3)C2)c2cnc(Nc3ccnc(N4CC[C@@H](O)[C@@](C)(F)C4)n3)cc12` [Example 89, (3S,4R)-1-(4-((8-(3-(1H-1,2,3-triazol-1-yl)azetidin-1-yl)-5-isopropyl-2,7-naphthyridin-3-yl)amino)pyrimidin-2-yl)-3-fluoro-3-methylpiperidin-4-ol], for which the values for the half-maximal inhibitory concentration (IC50) (on EGFR (L858R T790M C797S); in test [1]) were below 15 nM and below 10 nM, respectively.
On the same counts, the results for `CC(C)c1cnc(N2Cc3cnn(C)c3C2)c2cnc(Nc3ccnc(N4CC[C@@H](O)[C@@](C)(F)C4)n3)cc12` [Example 90, (3S,4R)-3-fluoro-1-(4-((5-isopropyl-8-(1-methyl-4,6-dihydropyrrolo[3,4-c]pyrazol-5(1H)-yl)-2,7-naphthyridin-3-yl)amino)pyrimidin-2-yl)-3-methylpiperidin-4-ol] are below 15 nM and 30 to 50 nM.
On the same counts, the results for `CC(C)c1cnc(N2CC(N3CCCC3=O)C2)c2cnc(Nc3ccnc(N4CC[C@@H](O)[C@@](C)(F)C4)n3)cc12` [Example 91, 1-(1-(6-((2-((3S,4R)-3-fluoro-4-hydroxy-3-methylpiperidin-1-yl)pyrimidin-4-yl)amino)-4-isopropyl-2,7-naphthyridin-1-yl)azetidin-3-yl)pyrrolidin-2-one] are 15 to 20 nM and above 50 nM.
On the same counts, the results for `CC(C)c1cnc(N2CC(F)(C(=O)N(C)C)C2)c2cnc(Nc3ccnc(N4CC[C@@H](O)[C@@](C)(F)C4)n3)cc12` [Example 92, 3-fluoro-1-(6-((2-((3S,4R)-3-fluoro-4-hydroxy-3-methylpiperidin-1-yl)pyrimidin-4-yl)amino)-4-isopropyl-2,7-naphthyridin-1-yl)-N,N-dimethylazetidine-3-carboxamide] are 15 to 20 nM and 30 to 50 nM.
Regarding `CC(C)c1cnc(N2CC(C)(C(=O)N(C)C)C2)c2cnc(Nc3ccnc(N4CC[C@@H](O)[C@@](C)(F)C4)n3)cc12` [Example 93, 1-(6-((2-((3S,4R)-3-fluoro-4-hydroxy-3-methylpiperidin-1-yl)pyrimidin-4-yl)amino)-4-isopropyl-2,7-naphthyridin-1-yl)-N,N,3-trimethylazetidine-3-carboxamide], the IC50 is below 15 nM on EGFR (L858R T790M C797S) and 10 to 20 nM in test [1].
On the same counts, the results for `CC(C)c1cnc(N2CC(N=S(C)(C)=O)C2)c2cnc(Nc3ccnc(N4CC[C@@H](O)[C@@](C)(F)C4)n3)cc12` [Example 94, ((1-(6-((2-((3S,4R)-3-fluoro-4-hydroxy-3-methylpiperidin-1-yl)pyrimidin-4-yl)amino)-4-isopropyl-2,7-naphthyridin-1-yl)azetidin-3-yl)imino)dimethyl-l6-sulfanone] are below 15 nM and 20 to 30 nM.

Usually IC50 stands for the concentration that gives 50% inhibition.
